Experimental findings from ChEMBL document CHEMBL1201862, “PubChem BioAssay data set” (2004) are described below.

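Five compound concentrations were applied to cells in 96-well plates for 48 hours; endpoints were derived by simple linear interpolation of the resulting dose-response curve. Here, GI50 denotes the concentration required for 50% inhibition of growth.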 Active and inactive are the calls of the source. Rule as the data show it: active = GI50 up to about 1.1 µM and inactive = higher.

Holding throughout (experiment): inhibition of tumour cell growth, NCI panel, 48 h
Assay [1] has as its system SW-620.
In assay [2] the test system is SNB-19.
Assay [3] deals with SF-539.
In assay [4] the test system is MDA-MB-231.
In assay [5] the test system is SR.
The test system of assay [6] is NCI-H522.
Assay [7] relates to NCI/ADR-RES.
The subject of assay [8] is OVCAR-8.
For assay [9], the system named is HT-29.
For assay [10], the system named is OVCAR-5.
In assay [11] the test system is DU-145.
For assay [12], the system named is IGROV-1.
The test system of assay [13] is U-251.
Assay [14] relates to A549.
Assay [15] has as its system UACC-257.
The subject of assay [16] is SK-MEL-5.
Assay [17] concerns SK-OV-3.
For assay [18], the system named is MCF7.
Assay [19] deals with HOP-62.
The subject of assay [20] is SK-MEL-28.

With `NC(=O)C(C(N)=O)=C(O)/C(O)=C/C(=O)c1ccccc1`, the GI50 in assay [1] was 81.1 µM (inactive); in assay [2], > 100 µM (inactive); in [3] it was > 100 µM (inactive); in assay [4], > 100 µM (inactive); in assay [5] it was 1.99 µM (inactive); in [6], 16.4 µM (inactive). Besides, the GI50 in [7], in [8], in [9], in [10], in assay [11] and in assay [12] was > 100 µM (inactive) in each case. The GI50 in [13] was > 100 µM (inactive); in [14] it was > 100 µM (inactive); in assay [15], > 100 µM (inactive); in assay [16] it was 73.8 µM (inactive); in [17], > 100 µM (inactive); in [18], 0.849 µM (active). For the same molecule, the GI50 in assay [19] and in assay [20] was > 100 µM (inactive) each time.

As to `COC(=O)C1CCC(=O)N1CN(C(C)=O)c1ccccc1Cl` (stereo not given), the GI50 in assay [1], in [2], in assay [3], in [4], in assay [5] and in assay [6] was > 100 µM (inactive) throughout. In addition, the GI50 in [7], in assay [8], in assay [9], in assay [10], in assay [11] and in [12] was > 100 µM (inactive) each time. Also, the GI50 in [13], in [14], in assay [15], in assay [16], in [17] and in assay [18] was > 100 µM (inactive) in each case. In addition, the GI50 in assay [19] and in [20] was > 100 µM (inactive) throughout.

As for `Cc1cc2c(cc1C)N1C(Cl)=C3CCCCC3=C(C#N)C1N2` (stereo not given), the GI50 is 2.02 µM (inactive) in [1]; 20.2 µM (inactive) in [2]; 22.4 µM (inactive) in assay [3]; 8.75 µM (inactive) in assay [4]; 3.65 µM (inactive) in assay [5]; 2 µM (inactive) in assay [6]. Further, the GI50 was 6.31 µM (inactive) in [7]; 11.5 µM (inactive) in assay [8]; 2.55 µM (inactive) in [9]; 21.1 µM (inactive) in assay [10]; 19.3 µM (inactive) in assay [11]; 6.76 µM (inactive) in assay [12]. The GI50 in assay [13] was 9.42 µM (inactive); in assay [14], 19.9 µM (inactive); in assay [15] it was 8.18 µM (inactive); in assay [16] it was 3.72 µM (inactive); in assay [17], 18.6 µM (inactive); in assay [18], 4.16 µM (inactive). The GI50 was 14.3 µM (inactive) in assay [19] and 3.3 µM (inactive) in assay [20].

`[N-]=[N+]=Nc1c([N+](=O)[O-])c(=O)n(-c2ccccc2)c2ccccc12`: the GI50 is 29.2 µM (inactive) in assay [1]; 32.3 µM (inactive) in assay [2]; 25.5 µM (inactive) in assay [3]; 17.8 µM (inactive) in assay [4]; 25.2 µM (inactive) in assay [5]; 25.8 µM (inactive) in assay [6]. In addition, the GI50 in assay [7] was 20.7 µM (inactive); in [8], 20.1 µM (inactive); in assay [9], 28.2 µM (inactive); in assay [10] it was > 100 µM (inactive); in [11], 35.2 µM (inactive); in [12], 21.7 µM (inactive). Further, the GI50 in [13] is 20.7 µM (inactive); in assay [14] it was 38.7 µM (inactive); in assay [15], 34.4 µM (inactive); in [16], 24.2 µM (inactive); in assay [17], 57.9 µM (inactive); in assay [18] it was 20.7 µM (inactive). Also, the figures for the GI50 in assay [19] and in [20] were 43.7 µM (inactive) and 26.5 µM (inactive), respectively.

Consider `O=C1C(/C=C/c2ccc(Cl)cc2)=NNC2N1N=C1NC(=O)C3(NN12)c1ccccc1-c1ccccc13` (stereo not given), for which the GI50 is > 100 µM (inactive) in [1]; > 100 µM (inactive) in assay [2]; > 100 µM (inactive) in [3]; > 100 µM (inactive) in [4]; < 0.01 µM (active) in assay [5]; > 100 µM (inactive) in assay [6]. In addition, the GI50 in [7] was > 100 µM (inactive); in [8], > 100 µM (inactive); in assay [9], 66.2 µM (inactive); in [10] it was > 100 µM (inactive); in [11] it was > 100 µM (inactive); in assay [12], > 100 µM (inactive). The GI50 is > 100 µM (inactive) in assay [13]; > 100 µM (inactive) in assay [14]; > 100 µM (inactive) in assay [15]; > 100 µM (inactive) in assay [16]; > 100 µM (inactive) in assay [17]; 26.5 µM (inactive) in assay [18]. Besides, the GI50 in [19] and in [20] was > 100 µM (inactive) in each case.

In the case of `N#Cc1c(N)nc(SCc2ccccc2)c(C#N)c1-c1ccc(O)cc1`, the GI50 is 15.2 µM (inactive) in assay [1]; 17.3 µM (inactive) in assay [2]; 19.5 µM (inactive) in assay [3]; 12.3 µM (inactive) in [4]; 10.9 µM (inactive) in assay [5]; 12.6 µM (inactive) in [6]. Also, the GI50 in assay [7] was 15.7 µM (inactive); in assay [8], 15 µM (inactive); in [9] it was 8.22 µM (inactive); in [10] it was 16.4 µM (inactive); in [11], 13.5 µM (inactive); in assay [12], 11 µM (inactive). For the same molecule, the GI50 in [13] is 13.9 µM (inactive); in assay [14], 11.7 µM (inactive); in assay [15] it was > 37.5 µM (inactive); in [16] it was 11.7 µM (inactive); in [17], 15.5 µM (inactive); in assay [18], 13.9 µM (inactive). In addition, the figures for the GI50 in assay [19] and in [20] were 15.2 µM (inactive) and 13.4 µM (inactive), respectively.

As to `N#Cc1ncc(C(Cl)Cl)nc1Cl`, the GI50 in assay [1] was 1.94 µM (inactive); in [2] it was 6.38 µM (inactive); in assay [3], 1.73 µM (inactive); in [4], 1.74 µM (inactive); in assay [5] it was 1.81 µM (inactive); in [6] it was 0.502 µM (active). Moreover, the GI50 was 2.14 µM (inactive) in assay [7]; 2.15 µM (inactive) in [8]; 1.74 µM (inactive) in assay [9]; 1.95 µM (inactive) in [10]; 8.67 µM (inactive) in assay [11]; 2.09 µM (inactive) in [12]. The GI50 in assay [13] was 1.97 µM (inactive); in assay [14], 3.24 µM (inactive); in assay [15], 1.53 µM (inactive); in [16] it was 1.75 µM (inactive); in [17], 3.78 µM (inactive); in assay [18], 1.94 µM (inactive). In addition, the GI50 in assay [19] was 3.07 µM (inactive); in assay [20] it was 1.89 µM (inactive).

For `CC1COC(c2cn[nH]c2C(N)=O)C1O` (stereo not given), the GI50 in [1], in assay [2], in [3], in [4], in assay [5] and in assay [6] was > 100 µM (inactive) in each case. The GI50 in assay [7], in assay [8], in assay [9], in [10], in [11] and in assay [12] was > 100 µM (inactive) throughout. The GI50 in assay [13], in assay [14], in assay [15], in [16], in assay [17] and in assay [18] was > 100 µM (inactive) throughout. Moreover, the GI50 in assay [19] and in assay [20] was > 100 µM (inactive) each time.

For the molecule `C=Cc1ccccc1C1(O)C=CC(OC)(OC)C=C1`, the GI50 in assay [1] was 3.8 µM (inactive); in assay [2], 15.8 µM (inactive); in assay [3], 2.72 µM (inactive); in assay [4], 10.5 µM (inactive); in [5] it was 2.65 µM (inactive); in [6], 7.26 µM (inactive). Further, the GI50 in assay [7] was 4.81 µM (inactive); in assay [8], 2.06 µM (inactive); in assay [9] it was 3.57 µM (inactive); in assay [10], 6.93 µM (inactive); in [11], 20.4 µM (inactive); in assay [12], 13.4 µM (inactive). Moreover, the GI50 in assay [13] was 3.66 µM (inactive); in assay [14], 17.3 µM (inactive); in assay [15] it was 11.8 µM (inactive); in assay [16] it was 13.8 µM (inactive); in assay [17], 13.9 µM (inactive); in assay [18], 2.94 µM (inactive). The figures for the GI50 in assay [19] and in assay [20] were 6.31 µM (inactive) and 6.89 µM (inactive), respectively.

With `O=C1Nc2ccc(S(=O)(=O)O)cc2/C1=N/Nc1ccccc1[N+](=O)[O-]`, the GI50 in assay [1], in assay [2], in [3], in assay [4], in assay [5] and in [6] was > 100 µM (inactive) in each case. The GI50 is > 100 µM (inactive) in assay [7]; > 100 µM (inactive) in assay [8]; > 100 µM (inactive) in assay [9]; 42.9 µM (inactive) in assay [10]; > 100 µM (inactive) in [11]; > 100 µM (inactive) in [12]. Also, the GI50 in [13] is > 100 µM (inactive); in assay [14], > 100 µM (inactive); in assay [15], > 100 µM (inactive); in [16] it was > 100 µM (inactive); in [17] it was 97.9 µM (inactive); in assay [18] it was > 100 µM (inactive). In addition, the GI50 in assay [19] and in [20] was > 100 µM (inactive) each time.
